Assay results: patent US20260125352A1, “PROCESSES FOR CONVERTING FURFURALS” (Origin Materials Operating, Inc., priority 2023, published 2026)

Assay: Solubility of amine and their hydrochlorides in solvents at room temperature
Type: physicochemical
Conditions: for Solubility of amines in acetone / Solubility of amines in methanol / Solubility of amines in methylfurfural (MF) / Solubility of amines in propylene carbonate / Solubility of amines in toluene / Solubility of amines in water: free amine, low values at saturation; for Solubility of amines in acetone / Solubility of amine hydrochloride salts in acetone: acetone μ = 20.7, high values not necessarily at saturation; for Solubility of amines in methanol / Solubility of amine hydrochloride salts in methanol: methanol μ = 32.7, high values not necessarily at saturation; for Solubility of amines in methylfurfural (MF) / Solubility of amine hydrochloride salts in methylfurfural (MF): methylfurfural (MF) μ = 41.9, high values not necessarily at saturation; for Solubility of amines in propylene carbonate / Solubility of amine hydrochloride salts in propylene carbonate: propylene carbonate μ = 64.9, high values not necessarily at saturation; for Solubility of amines in toluene / Solubility of amine hydrochloride salts in toluene: toluene μ = 2.4, high values not necessarily at saturation; for Solubility of amines in water / Solubility of amine hydrochloride salts in water: water μ = 78.4, high values not necessarily at saturation; for Solubility of amine hydrochloride salts in acetone / Solubility of amine hydrochloride salts in methanol / Solubility of amine hydrochloride salts in methylfurfural (MF) / Solubility of amine hydrochloride salts in propylene carbonate / Solubility of amine hydrochloride salts in toluene / Solubility of amine hydrochloride salts in water: hydrochloride salt of the amine precursor

Row | Solubility of amines in acetone | Solubility of amines in methanol | Solubility of amines in methylfurfural (MF) | Solubility of amines in propylene carbonate | Solubility of amines in toluene | Solubility of amines in water | Solubility of amine hydrochloride salts in acetone | Solubility of amine hydrochloride salts in methanol | Solubility of amine hydrochloride salts in methylfurfural (MF) | Solubility of amine hydrochloride salts in propylene carbonate | Solubility of amine hydrochloride salts in toluene | Solubility of amine hydrochloride salts in water | SMILES
1 | 49.87 wt. % | 9.27 wt. % | 2.49 wt. % | 0.17 wt. % | 47.61 wt. % | 0.00 wt. % |  |  |  |  |  |  | CCCCCN(CCCCC)CCCCC [triamylamine]
2 |  |  |  |  |  |  | 34.35 wt. % | 47.15 wt. % | 24.44 wt. % | 31.21 wt. % | 51.82 wt. % | 25.88 wt. % | CC(C)CN(CC(C)C)CC(C)C [triisobutylamine, 2-methyl-N,N-bis(2-methylpropyl)propan-1-amine]
3 |  |  |  |  |  | 47.16 wt. % | <0.09 wt. % | 34.66 wt. % | <0.13 wt. % | <1.16 wt. % | <0.12 wt. % | 38.39 wt. % | CN(C)C [trimethylamine]
4 | 49.20 wt. % | 49.11 wt. % | 14.35 wt. % | 4.59 wt. % | 46.90 wt. % | 0.30 wt. % | 15.01 wt. % | 33.08 wt. % | 26.83 wt. % | 34.05 wt. % | <4.91 wt. % | 33.39 wt. % | CCN(C(C)C)C(C)C [Hunig's base]
